target: T1, hFXR (Homo sapiens, UniProt Q96RI1); test: In Vitro FXR Assay (TK): TK-ECRE-luc reporter in transfected CV-1 cells; format: cell-based; details: CV-1 cells transfected with hFXR, hRXR, pCMX-YFP, 18 hrs incubation, luminescence
T1 construct: expressed in transfected cells; host or cells: CV-1 cells
T1 sequence (Q96RI1 1-486): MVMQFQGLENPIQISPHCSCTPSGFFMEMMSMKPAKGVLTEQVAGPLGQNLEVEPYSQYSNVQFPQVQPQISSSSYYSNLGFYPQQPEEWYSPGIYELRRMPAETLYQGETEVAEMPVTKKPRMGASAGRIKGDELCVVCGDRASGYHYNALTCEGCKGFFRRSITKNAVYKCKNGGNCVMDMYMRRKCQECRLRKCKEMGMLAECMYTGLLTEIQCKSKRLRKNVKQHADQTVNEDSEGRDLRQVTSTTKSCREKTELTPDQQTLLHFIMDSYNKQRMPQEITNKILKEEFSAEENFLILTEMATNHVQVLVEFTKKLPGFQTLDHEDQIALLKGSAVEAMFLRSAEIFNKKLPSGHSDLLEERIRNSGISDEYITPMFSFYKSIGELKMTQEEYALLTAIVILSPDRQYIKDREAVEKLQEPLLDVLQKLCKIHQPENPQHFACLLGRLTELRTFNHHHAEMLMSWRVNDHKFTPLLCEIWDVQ
T1 sequence (P19793 1-462 partner): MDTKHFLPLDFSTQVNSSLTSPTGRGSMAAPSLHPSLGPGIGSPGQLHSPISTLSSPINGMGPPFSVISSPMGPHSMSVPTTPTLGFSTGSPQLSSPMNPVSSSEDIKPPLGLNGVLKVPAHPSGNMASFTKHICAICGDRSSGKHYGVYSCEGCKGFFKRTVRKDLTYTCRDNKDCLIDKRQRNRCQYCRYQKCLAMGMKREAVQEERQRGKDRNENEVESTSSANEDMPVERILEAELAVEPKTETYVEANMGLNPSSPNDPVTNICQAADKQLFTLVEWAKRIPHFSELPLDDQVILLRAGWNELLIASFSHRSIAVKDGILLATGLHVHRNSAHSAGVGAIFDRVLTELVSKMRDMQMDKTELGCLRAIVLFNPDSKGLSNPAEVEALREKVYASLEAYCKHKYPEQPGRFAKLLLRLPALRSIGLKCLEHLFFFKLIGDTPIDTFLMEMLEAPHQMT
Method: Example B-1: In Vitro FXR Assay (TK)
CV-1 cells were seeded at a density of 2,000,000 cells in a T175 flask with DMEM+10% charcoal double-stripped FBS and incubated at 37° C. in 5% CO2 for 18 h (O/N).
After 18 h of incubation, the medium in the T175 flask was changed with fresh DMEM+10% charcoal super-stripped serum. In a polypropylene tube, 2500 μL OptiMEM (Life Technologies, Cat #31985-062) was combined with expression plasmids for hFXR, hRXR, TK-ECRE-luc and pCMX-YFP. The tube was then briefly vortexed and incubated at room temperature for 5 minutes. Transfection reagent (X-tremeGENE HP from Roche, Cat #06 366 236 001) was added to the OptiMEM/plasmid mixture vortexed and incubated at room temperature for 20 minutes. Following incubation, the transfection reagent/DNA mixture complex was added to cells in the T175 flask and the cells were incubated at 37° C. in 5% CO2 for 18 h (O/N).
Compounds were serially diluted in DMSO and added to transfected CV-1 cells. The cells were then incubated for 18 hrs. The next day cells were lysed and examined for luminescence.

Row | SMILES | EC50 [nM]
1 | COc1ccc(C23CCC(CN(c4cc(-c5cnn(C(C)(C)C)c5)ccn4)C(=O)[C@H]4CC[C@H](OC(=O)NC5CCSCC5)CC4)(CC2)CC3)cc1C [Compound 2.29, 4-((4-(1-(tert-Butyl)-1H-pyrazol-4-yl)pyridin-2-yl)((4-(4-methoxy-3-methylphenyl)bicyclo[2.2.2]octan-1-yl)methyl)carbamoyl)cyclohexyl trans-(tetrahydro-2H-thiopyran-4-yl)carbamate] | 10 to 1000
2 | COc1ccc([C@H]2CC[C@H](CN(c3cc(-c4coc(C(C)(C)C)n4)ccn3)C(=O)[C@H]3CC[C@H](OC(=O)NC4CCOCC4)CC3)CC2)cc1C [Compound 1.07, trans-4-((4-(2-(tert-Butyl)oxazol-4-yl)pyridin-2-yl)(((trans)-4-(4-methoxy-3-methylphenyl)cyclohexyl)methyl)carbamoyl) cyclohexyl (tetrahydro-2H-pyran-4-yl)carbamate] | 10 to 1000
3 | COc1ccc([C@H]2CC[C@H](CN(c3cc(-c4cnc(C(C)(C)C)s4)ccn3)C(=O)[C@H]3CC[C@H](OC(=O)N4CCC(O)CC4)CC3)CC2)cc1C [Compound 1.03, trans-4-((4-(2-(tert-Butyl)thiazol-5-yl)pyridin-2-yl)(((trans)-4-(4-methoxy-3-methylphenyl)cyclohexyl)methyl)carbamoyl) cyclohexyl 4-hydroxypiperidine-1-carboxylate] | 10 to 1000
4 | COc1ccc([C@H]2CC[C@H](CN(c3cc(-c4cnc(C(C)(C)C)s4)ccn3)C(=O)[C@H]3CC[C@H](OC(=O)NC4CCOCC4)CC3)CC2)cc1C [Compound 1] | 10 to 1000
5 | COc1c(C)cc(C23CCC(CN(c4cc(-c5cnn(C(C)(C)C)c5)ncn4)C(=O)[C@H]4CC[C@H](OC(=O)N5CC(O)C5)CC4)(CC2)CC3)cc1C [Compound 2.37, 4-((6-(1-(tert-Butyl)-1H-pyrazol-4-yl)pyrimidin-4-yl)((4-(4-methoxy-3,5-dimethylphenyl)bicyclo[2.2.2]octan-1-yl)methyl)carbamoyl) (trans-cyclohexyl) 3-hydroxyazetidine-1-carboxylate] | 10 to 1000
6 | CCC(C)(C)n1cc(-c2ccnc(N(CC34CCC(c5ccc(OC)c(C)c5)(CC3)CC4)C(=O)[C@H]3CC[C@H](OC(=O)NCCCO)CC3)c2)cn1 [Compound 4.03, 4-(((4-(4-Methoxy-3-methylphenyl)bicyclo[2.2.2]octan-1-yl)methyl)(4-(1-(tert-pentyl)-1H-pyrazol-4-yl)pyridin-2-yl)carbamoyl) cyclohexyl trans-(3-hydroxypropyl)carbamate] | ≤ 10
7 | COc1ccc(C23CCC(CN(c4cc(-c5cnc(C(C)(C)C)s5)ccn4)C(=O)[C@H]4CC[C@H](OC(=O)NCCC(C)(C)O)CC4)(CC2)CC3)cc1C [Compound 2.08, 4-((4-(2-(tert-Butyl)thiazol-5-yl)pyridin-2-yl)((4-(4-methoxy-3-methylphenyl)bicyclo[2.2.2]octan-1-yl)methyl)carbamoyl) (trans-cyclohexyl) (3-hydroxy-3-methylbutyl)carbamate] | ≤ 10

Continued, values first:

Row | EC50 [nM] | SMILES
8 | 10 to 1000 | COc1ccc(C23CCC(CN(c4cc(-n5ccc(C(C)(C)C)n5)ccn4)C(=O)[C@H]4CC[C@H](OC(=O)N5CC(O)C5)CC4)(CC2)CC3)cc1C [Compound 2.35, 4-((4-(3-(tert-Butyl)-1H-pyrazol-1-yl)pyridin-2-yl)((4-(4-methoxy-3-methylphenyl)bicyclo[2.2.2]octan-1-yl)methyl)carbamoyl) cyclohexyl trans-3-hydroxyazetidine-1-carboxylate]
9 | 10 to 1000 | CN(C)c1ccc(C23CCC(CN(c4cc(-c5cnn(C(C)(C)C)c5)ccn4)C(=O)[C@H]4CC[C@H](OC(=O)N5CC(O)C5)CC4)(CC2)CC3)cn1 [Compound 3.06, 4-((4-(1-(tert-Butyl)-1H-pyrazol-4-yl)pyridin-2-yl)((4-(6-(dimethylamino)pyridin-3-yl)bicyclo[2.2.2]octan-1-yl)methyl)carbamoyl) (trans-cyclohexyl) 3-hydroxyazetidine-1-carboxylate]
10 | ≤ 10 | COc1ncc(C23CCC(CN(c4cc(-c5cnn(C(C)(C)C)c5)ccn4)C(=O)[C@H]4CC[C@H](OC(=O)N5CC(O)C5)CC4)(CC2)CC3)cc1C [Compound 3.05, 4-((4-(1-(tert-Butyl)-1H-pyrazol-4-yl)pyridin-2-yl)((4-(6-methoxy-5-methylpyridin-3-yl)bicyclo[2.2.2]octan-1-yl)methyl)carbamoyl) (trans-cyclohexyl) 3-hydroxyazetidine-1-carboxylate]
11 | ≤ 10 | COc1ccc(C23CCC(CN(c4cc(-c5cnn(C(C)(C)C)c5)ccn4)C(=O)[C@H]4CC[C@H](OC(=O)N5CCC(N(C)C)C5)CC4)(CC2)CC3)cc1C (stereo partly drawn) [Compound 2.26, 4-((4-(1-(tert-Butyl)-1H-pyrazol-4-yl)pyridin-2-yl)((4-(4-methoxy-3-methylphenyl)bicyclo[2.2.2]octan-1-yl)methyl)carbamoyl)cyclohexyl 3-(dimethylamino)pyrrolidine- trans-1-carboxylate]
12 | ≤ 10 | COc1ccc(C23CCC(CN(c4cc(-c5cnn(C(C)(C)C)c5)ccn4)C(=O)[C@H]4CC[C@H](OC(=O)N5CC[C@H](O)C5)CC4)(CC2)CC3)cc1C [Compound 2.34, (S)-4-((4-(1-(tert-Butyl)-1H-pyrazol-4-yl)pyridin-2-yl)((4-(4-methoxy-3-methylphenyl)bicyclo[2.2.2]octan-1-yl)methyl)carbamoyl) cyclohexyl trans-3-hydroxypyrrolidine-1-carboxylate]
13 | ≤ 10 | COc1ccc(C23CCC(CN(c4cc(-c5cnn(C(C)(C)C)c5)ccn4)C(=O)[C@H]4CC[C@H](OC(=O)N5CC[C@H]5CO)CC4)(CC2)CC3)cc1C [Compound 2.21, (S)-4-((4-(1-(tert-Butyl)-1H-pyrazol-4-yl)pyridin-2-yl)((4-(4-methoxy-3-methylphenyl)bicyclo[2.2.2]octan-1-yl)methyl)carbamoyl)cyclohexyl 2-(hydroxymethyl)azetidine- trans-1-carboxylate]
14 | ≤ 10 | CCC(C)(C)n1cc(-c2ccnc(N(CC34CCC(c5ccc(OC)c(C)c5)(CC3)CC4)C(=O)[C@H]3CC[C@H](OC(=O)N4CC(O)C4)CC3)c2)cn1 [Compound 4, 4-(((4-(4-Methoxy-3-methylphenyl)bicyclo[2.2.2]octan-1-yl)methyl)(4-(1-(tert-pentyl)-1H-pyrazol-4-yl)pyridin-2-yl)carbamoyl) cyclohexyl trans-3-hydroxyazetidine-1-carboxylate]
15 | 10 to 1000 | COc1ccc(C23CCC(CN(c4cc(-c5coc(C(C)(C)C)n5)ccn4)C(=O)[C@H]4CC[C@H](OC(=O)NC5COC5)CC4)(CC2)CC3)cc1C [Compound 2.18, 4-((4-(2-(tert-Butyl)oxazol-4-yl)pyridin-2-yl)((4-(4-methoxy-3-methylphenyl)bicyclo[2.2.2]octan-1-yl)methyl)carbamoyl) (trans-cyclohexyl) oxetan-3-ylcarbamate]
16 | ≤ 10 | COc1ccc(C23CCC(CN(c4cc(-c5cnn(C(C)(C)C)c5)ccn4)C(=O)[C@H]4CC[C@H](OC(=O)NCCCO)CC4)(CC2)CC3)cc1C [Compound 2.31, 4-((4-(1-(tert-Butyl)-1H-pyrazol-4-yl)pyridin-2-yl)((4-(4-methoxy-3-methylphenyl)bicyclo[2.2.2]octan-1-yl)methyl)carbamoyl) (trans-cyclohexyl) (3-hydroxypropyl)carbamate]
17 | ≤ 10 | COc1ccc(C23CCC(CN(c4cc(-c5cnc(C(C)(C)C)s5)ccn4)C(=O)[C@H]4CC[C@H](OC(=O)N5CCC(O)CC5)CC4)(CC2)CC3)cc1C [Compound 2.05, 4-((4-(2-(tert-Butyl)thiazol-5-yl)pyridin-2-yl)((4-(4-methoxy-3-methylphenyl)bicyclo[2.2.2]octan-1-yl)methyl)carbamoyl)cyclohexyl 4-hydroxypiperidine- trans-1-carboxylate]

— US11773094B2, “Farnesoid X receptor agonists and uses thereof” (Metacrine, Inc., priority 2018, dated 2023)
